These results are taken from ChEMBL document CHEMBL1139168, “Pyrrolidino-tetrahydroisoquinolines as potent dual H3 antagonist and serotonin transporter inhibitors” (Bioorg Med Chem Lett, 2007).

One series has as its target Histamine H3 receptor (Homo sapiens, UniProt Q9Y5N1). In words: Binding affinity at human histamine H3 receptor expressed in SK-N-MC cells.
The target of series [1] is Sodium-dependent serotonin transporter (Rattus norvegicus, UniProt P31652). The series is described as follows: Displacement of [3H]citalopram from rat brain SERT.
Sodium-dependent serotonin transporter, sequence (P31652 whole entry): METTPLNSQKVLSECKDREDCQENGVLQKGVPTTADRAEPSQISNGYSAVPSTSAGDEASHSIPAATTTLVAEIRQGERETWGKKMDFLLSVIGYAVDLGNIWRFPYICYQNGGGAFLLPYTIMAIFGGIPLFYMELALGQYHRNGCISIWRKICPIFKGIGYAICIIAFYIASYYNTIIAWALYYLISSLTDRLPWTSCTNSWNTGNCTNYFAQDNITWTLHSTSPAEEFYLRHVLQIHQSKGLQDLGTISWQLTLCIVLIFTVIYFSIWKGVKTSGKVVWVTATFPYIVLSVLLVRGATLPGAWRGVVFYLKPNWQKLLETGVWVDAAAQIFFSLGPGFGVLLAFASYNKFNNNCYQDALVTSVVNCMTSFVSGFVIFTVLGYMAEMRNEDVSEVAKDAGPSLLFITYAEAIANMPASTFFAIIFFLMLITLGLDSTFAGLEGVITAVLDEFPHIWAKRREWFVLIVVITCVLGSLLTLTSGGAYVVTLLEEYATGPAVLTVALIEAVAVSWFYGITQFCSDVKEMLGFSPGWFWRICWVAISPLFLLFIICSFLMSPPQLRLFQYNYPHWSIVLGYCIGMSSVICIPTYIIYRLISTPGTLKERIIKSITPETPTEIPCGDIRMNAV
Series [2] deals with Mus musculus. The series is described as follows: Inhibition of SERT in 5-hydroxytryptophan potentiated head twitch mouse model assessed as increase in head twitch response at 10 mg/kg, ip relative to control. Details: scale not given: the % may be the effect or the level left. In kind it is functional. As to conditions: route intraperitoneal.
Series [3] relates to Rattus norvegicus. In words: Increase in extracellular dopamine level in rat brain frontal cortex at 1 mg/kg, ip after 8 hrs relative to basal level. In kind it is functional. The following applies: route intraperitoneal.
The nature of series [4]: Bioavailability in rat 10 mg/kg, po. As to conditions: in vivo. In kind it is ADME, organism-based.
In series [5] the test system is Rattus norvegicus. In words: Increase in extracellular serotonin level in rat brain frontal cortex at 1 mg/kg, ip after 8 hrs relative to basal level. In kind it is functional. The following applies: route intraperitoneal.
Series [6] has as its system Mus musculus. In words: Inhibition of SERT in ip dosed 5-hydroxytryptophan potentiated head twitch mouse model assessed as increase in head twitches after 24 hrs. In kind it is functional, organism-based.
The subject of series [7] is Rattus norvegicus. The series is described as follows: Increase in extracellular serotonin level in rat brain frontal cortex at 1 mg/kg, ip after 24 hrs relative to basal level. In kind it is functional. As to conditions: route intraperitoneal.
Series [8] in a line: Cmax in mouse brain at 30 mg/kg, ip.
For series [9], the system named is Mus musculus. The series is described as follows: Inhibition of SERT in 5-hydroxytryptophan potentiated head twitch mouse model assessed as increase in head twitch response at 3 mg/kg, ip relative to control. It counts as functional. Details: scale not given: the % may be the effect or the level left. As to conditions: route intraperitoneal.
Series [10] deals with Rattus norvegicus. In words: Increase in extracellular dopamine level in rat brain frontal cortex at 1 mg/kg, ip after 24 hrs relative to basal level. The following applies: route intraperitoneal. It counts as functional.
Series [11] is described as follows: Half life in rat at 1 mg/kg, iv or 10 mg/kg, po. In kind it is ADME, organism-based. The following applies: in vivo.

Molecules are shown by their SMILES.

Histamine H3 receptor, sequence (Q9Y5N1 whole entry): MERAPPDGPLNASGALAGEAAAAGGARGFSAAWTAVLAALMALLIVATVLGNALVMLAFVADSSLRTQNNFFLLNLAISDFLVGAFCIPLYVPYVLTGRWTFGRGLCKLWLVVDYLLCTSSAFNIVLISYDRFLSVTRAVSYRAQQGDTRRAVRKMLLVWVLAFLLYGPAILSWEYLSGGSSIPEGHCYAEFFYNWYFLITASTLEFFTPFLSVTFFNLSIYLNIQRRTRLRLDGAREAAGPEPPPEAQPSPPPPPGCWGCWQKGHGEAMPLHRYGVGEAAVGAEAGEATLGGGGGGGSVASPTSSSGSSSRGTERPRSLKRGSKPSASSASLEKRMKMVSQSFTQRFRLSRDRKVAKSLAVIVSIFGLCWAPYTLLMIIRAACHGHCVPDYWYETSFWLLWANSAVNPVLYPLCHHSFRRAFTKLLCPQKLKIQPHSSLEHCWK

Take `COc1cccc(C2CN3CCCC3c3cc(OCCCN4CCCCC4)ccc32)c1` (racemic): the Ki on Histamine H3 receptor came to 1.7 nM; in series [1] it was 4.7 nM.

As to `COc1ccccc1C1CN2CCCC2c2cc(OCCCN3CCCCC3)ccc21` (racemic), the values for the Ki (at Histamine H3 receptor; in [1]) were 1.3 nM and 14 nM, respectively.

For `Oc1ccc(C2CN3CCCC3c3cc(OCCCN4CCCCC4)ccc32)cc1` (racemic), the inhibition constant Ki on Histamine H3 receptor came to 1.7 nM; in [1] it was 9.3 nM.

Regarding `Oc1ccccc1C1CN2CCCC2c2cc(OCCCN3CCCCC3)ccc21` (racemic), the Ki on Histamine H3 receptor was found to be 3.7 nM; in series [1] it was 20.7 nM.

Turning to `CN(C)c1ccc(C2CN3CCCC3c3cc(OCCCN4CCCCC4)ccc32)cc1` (racemic), the Ki was determined as 1.6 nM at Histamine H3 receptor and 3.3 nM in series [1].

Take `FC(F)(F)c1ccc(C2CN3CCCC3c3cc(OCCCN4CCCCC4)ccc32)cc1` (racemic): the inhibitory constant (Ki) at Histamine H3 receptor came to 4.7 nM; in series [1], 26.7 nM.

As for `c1ccc(C2CN3CCCC3c3cc(OCCCN4CCCCC4)ccc32)cc1` (racemic), the Ki worked out at 0.9 nM on Histamine H3 receptor and 2 nM in series [1].

Regarding `CSc1ccc(C2CN3CCCC3c3cc(OCCCN4CCCCC4)ccc32)cc1` (racemic), the inhibition constant (Ki) was 2.5 nM at Histamine H3 receptor and 3.3 nM in series [1].

As for `Cc1ccc(C2CN3CCCC3c3cc(OCCCN4CCCCC4)ccc32)cc1` (racemic), the figures for the Ki (on Histamine H3 receptor; in series [1]) were 2 nM and 3 nM, respectively.

Take `C#Cc1cccc(C2CN3CCCC3c3cc(OCCCN4CCCCC4)ccc32)c1` (racemic): the values for the inhibition constant (Ki) (on Histamine H3 receptor; in series [1]) were 2 nM and 8.7 nM, respectively.

On to `Clc1ccccc1C1CN2CCCC2c2cc(OCCCN3CCCCC3)ccc21` (racemic), for which the inhibition constant Ki is 2.3 nM at Histamine H3 receptor and 8.7 nM in series [1].

For the molecule `FC(F)(F)c1cccc(C2CN3CCCC3c3cc(OCCCN4CCCCC4)ccc32)c1` (racemic), the values for the Ki (at Histamine H3 receptor; in series [1]) were 2 nM and 21.7 nM, respectively.

`Clc1ccc(C2CN3CCCC3c3cc(OCCCN4CCCCC4)ccc32)cc1` (racemic): the values for the inhibition constant (Ki) (at Histamine H3 receptor; in [1]) were 2.2 nM and 6.3 nM, respectively.

Take `Fc1ccc(C2CN3CCCC3c3cc(OCCCN4CCCCC4)ccc32)cc1` (racemic): the Ki at Histamine H3 receptor came out at 1.7 nM; in series [1], 3.7 nM.

Regarding `N#Cc1ccc(C2CN3CCCC3c3cc(OCCCN4CCCCC4)ccc32)cc1` (racemic), the values for the inhibition constant Ki (on Histamine H3 receptor; in [1]) were 1.2 nM and 24.7 nM, respectively.

`Oc1cccc(C2CN3CCCC3c3cc(OCCCN4CCCCC4)ccc32)c1` (racemic): the results for the inhibition constant Ki (at Histamine H3 receptor; in series [1]) were 0.7 nM and 1.3 nM, respectively.

For `FC(F)(F)Oc1ccc(C2CN3CCCC3c3cc(OCCCN4CCCCC4)ccc32)cc1` (racemic), the Ki at Histamine H3 receptor was 4 nM; in series [1] it was 11 nM.

For the molecule `O=[N+]([O-])c1ccc(C2CN3CCCC3c3cc(OCCCN4CCCCC4)ccc32)cc1` (racemic), the inhibition constant Ki at Histamine H3 receptor came to 1.3 nM; in series [1], 5.3 nM.

As to `COc1ccc(C2CN3CCCC3c3cc(OCCCN4CCCCC4)ccc32)cc1` (racemic), the Activity was 661% with Mus musculus [2]; 300% in the series with Rattus norvegicus [3]; 500% with Rattus norvegicus [5]; “Dose-dependent effect” in the series with Mus musculus [6]; 500% in the series on Rattus norvegicus [7]; 384% in the series on Mus musculus [9]. Also, in the series with Rattus norvegicus [10], the Activity was determined as 300%. For the same molecule, in series [4], the bioavailability is 16%. In series [8], this molecule displayed a Cmax of 1280 nM. The same molecule had a half-life in series [11] of 15.7 h.

As for `Clc1cccc(C2CN3CCCC3c3cc(OCCCN4CCCCC4)ccc32)c1` (racemic), the figures for the Ki (on Histamine H3 receptor; in series [1]) were 1.2 nM and 4 nM, respectively.

For `C#Cc1ccc(C2CN3CCCC3c3cc(OCCCN4CCCCC4)ccc32)cc1` (racemic), the results for the inhibition constant Ki (at Histamine H3 receptor; in series [1]) were 4 nM and 7 nM, respectively.
